From patent publication EP1507010B1, “Control of the gene expression in eukaryotic cells” (priority 1999, dated 2001)

Legend:
[1] = target: T1, HA-VP16-TraR fusion (TraR from Agrobacterium strain A348 fused to VP16 activation domain; pMON53030) (UniProt P06492+P33905); test: Transient GUS reporter assay in transfected carrot protoplasts with VP16-TraR effector; assay type: cell-based, Agrobacterium tumefaciens; parameters: + inducer (average of the GUS activities) / + inducer (GUS activity, average) / GUS activity, average (with AHL or analog at the stated concentration) / GUS activity, average (+ inducer) / GUS activity, average: unit not given here; conditions: for GUS activity, average ('- inducer'): 1 µM of the AHL or analog; for GUS activity, average ('- inducer') / GUS activity, average (with AHL or analog at the stated concentration) / GUS activity, average (+ inducer) / GUS activity, average / fold +/-: reporter TraA8(4X)-GUS + 35S-VP16-TraR; for GUS activity, average (with AHL or analog at the stated concentration): 5 µM of the AHL or analog; for GUS activity, average: 25 µM of the AHL or analog; for + inducer (GUS activity, average): 12.5 µM C8-AHL
T1 construct: PCR fragments containing open reading frames are cloned into an expression construct; expressed in transfected cells; host or cells: carrot protoplasts from cell suspension culture, transient transfection
From the text: Carrot protoplasts were transfected with the TraA8 (4X)- GUS reporter construct with the 35S-VP16-TraR activator gene and tested for GUS induction by application of wild type AHL and the various AHL analogs described in Example 8. Table 8: Transient assays in carrot protoplasts of AHL analogs

[2] = test system: TraR (expressed from GAL1 galactose inducible promoter, pGAL415TraR); test: β-galactosidase reporter assay (chemiluminescent) in yeast expressing TraR; assay type: cell-based, Agrobacterium tumefaciens; conditions: 50µM C8-HSL, 5 hrs of growth on galactose; strain YPH499, cl.5 and 6; minimal promoter with 3 copies of TraA8 element
TraM = conditions: 12.5 µM C8-AHL; reporter TraA8(3X), cl.4 (60 µg) + TraM
From the text: Plasmids for transfection were isolated and purified using Megaprep plasmid DNA isolation kit (Qiagen).

[3] = test system: VP16-TraR fusion (pMON53077); test: GUS activity in transgenic Arabidopsis plants carrying GUS reporter and 35S-VP16-TraR activator genes; assay type: in vivo, Agrobacterium tumefaciens; conditions: detached caulline leaves, 24 hours in MS medium with 100 µM HSL
Description: Transgenic Arabidopsis plants containing TraA8(3X)-GUS reporter and 35S-VP16-TraR activator genes (pMON53077) were analyzed for induction of GUS activity. […] GUS assays were conducted as described by Jefferson et al. (supra).
In addition, detached leaves incubated for 24 hours in MS medium with or without 100 µM HSL were visualized for induction of GUS activity after staining.

[4] = test system: HA-VP16-EsaR fusion (pMON53005); test: Transient GUS reporter assay in transfected carrot protoplasts with VP16-EsaR effector; assay type: cell-based, Erwinia sterwartii; conditions: for + inducer (average of the GUS activities): 25 [i M] OOHL, 36 hrs
Description: Plasmids for transfection were isolated and purified using Megaprep plasmid DNA isolation kit (Qiagen). Carrot protoplasts for transfections were prepared from carrot cell suspension culture and transfected with purified DNA as described (Ulmasov et al., Plant Cell 7:1611-1623, 1995). Briefly, 10 ì g of the reporter plasmid and 5 ìg of the effector plasmid were incubated with 10^6 protoplasts for five minutes at the room temperature in the presence of polyethylene glycol-calcium solution. After diluting approximately 10-fold with the culture medium, the protoplasts were incubated in the dark for 36 hours either in the presence or absence of the inducer 3-oxohexanoyl-homoserine lactone (OHHL, racemic mixture of the L- and D-isomers, purchased from Sigma Chemical Co., St Louis, MO). After incubation, protoplasts were collected by low-speed centrifugation, lysed and the level of GUS activity was measured using fluorometric GUS assay (Jefferson et al., EMBO J. 6:3901-3907, 1987).
Ten µg of the reporter plasmid (pMON53031), and indicated amount of the 35S effector plasmid per reaction was used for transfection in triplicate.

[5] = ratio of GUS activity at 12.5 µM to that at 5 µM
[6] = ratio of GUS activity at 75 µM to that at 25 µM
[7] = ratio of GUS activity at […] to that at 1 µM
[8] = 25 [i M] inducer (OOHL, or C6), reporter pMON53031, pMON53030 60 µg, 36 hrs

CCCCCC(=O)C(CCCC)C(=O)N[C@@H](CCO)C(=O)O (stereo partly drawn) [compound 25, N-(α-Butyl-b-ketooctanoyl)-(S)-homoserine]
GUS activity, average ('- inducer') [1]: 256.9 | GUS activity, average (with AHL or analog at the stated concentration) [1]: 309.3 | GUS activity, average (+ inducer) ([1]; 12.5 µM of the AHL or analog): 284.7 | GUS activity, average [1]: 224.2 | GUS activity, average (+ inducer) ([1]; 75 µM of the AHL or analog): 252.9 | fold +/- [1, 5]: 0.9 fold | fold +/- [1, 6]: 1.1 fold | fold +/- [1, 7]: 2.1 fold

3-oxooctanoyl-L-homoserine lactone [C8-HSL]
induction of β-gal activity in cell extracts [2]: strong induction | + inducer (GUS activity, average) (TraM): 98.0 | GUS activity, average ('- inducer') [1]: 1263.2 | GUS activity, average (with AHL or analog at the stated concentration) [1]: 3018.7 | + inducer (GUS activity, average) ([1]; reporter Tra box(3X), cl.5, second transfection): 1576.2 | + inducer (GUS activity, average) ([1]; reporter TraA1 (3X), cl.35, second transfection): 1560.4 | + inducer (GUS activity, average) ([1]; reporter TraA2(3X), cl.43, second transfection): 2057.1 | + inducer (GUS activity, average) ([1]; reporter TraA3(3X), cl.4, second transfection): 100.1 | + inducer (GUS activity, average) ([1]; reporter TraA4(3X), cl.23, second transfection): 109.6 | + inducer (GUS activity, average) ([1]; reporter TraA5(3X), cl.2, second transfection): 82.3 | + inducer (GUS activity, average) ([1]; reporter TraA6(3X), cl.21, second transfection): 3.2 | + inducer (GUS activity, average) ([1]; reporter TraA7(3X), cl.15, second transfection): 236.8 | + inducer (GUS activity, average) ([1]; reporter TraA8(3X), cl.4 (25µg) + TraR + CAT): 762.2 | + inducer (GUS activity, average) ([1]; reporter TraA8(3X), cl.4 (25µg) + TraR + TraM co-transfected): 11.8 | + inducer (GUS activity, average) ([1]; reporter TraA8(3X), cl.4 (25µg) + TraR + TraS co-transfected): 248.3 | + inducer (GUS activity, average) ([1]; reporter TraA8(3X), cl.4 (60 µg), effector printed as TraR): 1665.3 | + inducer (GUS activity, average) ([1]; reporter TraA8(3X), cl.4, second transfection): 1759.1 | + inducer (GUS activity, average) ([1]; reporter TraA8(4X), cl. 16 + HA-VP16-TraR): 1015.3 | + inducer (GUS activity, average) ([1]; reporter TraA10(3X), cl.17, second transfection): 641.1 | + inducer (GUS activity, average) ([1]; reporter TraA-1(3X), cl.14, second transfection): 26.7 | + inducer (GUS activity, average) ([1]; reporter tra box (6X), cl.7, first transfection): 987.4 | + inducer (GUS activity, average) ([1]; reporter traA1(3X), cl.35, first transfection): 1941.5 | + inducer (GUS activity, average) ([1]; reporter traA2(3X), cl.43, first transfection): 2281.6 | + inducer (GUS activity, average) ([1]; reporter traA3(3X), cl.4, first transfection): 116.5 | + inducer (GUS activity, average) ([1]; reporter traA4(3X), cl.23, first transfection): 122.8 | + inducer (GUS activity, average) ([1]; reporter traA5(3X), cl.2, first transfection): 20.5 | + inducer (GUS activity, average) ([1]; reporter traA6(3X), cl.21, first transfection): 64.6 | + inducer (GUS activity, average) ([1]; reporter traA7(3X), cl.15, first transfection): 234.8 | + inducer (GUS activity, average) ([1]; reporter traA8(3X), cl.4, first transfection): 888.0 | + inducer (GUS activity, average) ([1]; reporter traA9(3X), cl.8, first transfection): 63.7 | GUS activity, average (+ inducer) ([1]; 12.5 µM of the AHL or analog): 4142.8 | GUS activity, average [1]: 7642.9 | GUS activity, average ([1]; listed as CB-HSL): 7523.9 | GUS activity, average (+ inducer) ([1]; 75 µM of the AHL or analog): 7975.7 | + inducer (average of the GUS activities) ([1]; 0.1 [i M] OOHL, reporter pMON53031, pMON53030 60 µg, 36 hrs): 355.9 | + inducer (average of the GUS activities) ([1]; 0.5 [i M] OOHL, reporter pMON53031, pMON53030 60 µg, 36 hrs): 698 | + inducer (average of the GUS activities) ([1]; 1 [i M] OOHL, reporter pMON53031, pMON53030 60 µg, 36 hrs): 458.2 | + inducer (average of the GUS activities) ([1]; 2.5 [i M] OOHL, reporter pMON53031, pMON53030 60 µg, 36 hrs): 1487.8 | + inducer (average of the GUS activities) ([1]; 5 [i M] OOHL, reporter pMON53031, pMON53030 60 µg, 36 hrs): 1474.2 | + inducer (average of the GUS activities) ([1]; 12.5 [i M] OOHL, reporter pMON53031, pMON53030 60 µg, 36 hrs): 1526.2 | + inducer (average of the GUS activities) ([1]; 25 [i M] OOHL, reporter pMON53031, pMON53030 30 µg + CAT, 36 hrs): 215.7 | + inducer (average of the GUS activities) [1, 8]: 1393.2 | + inducer (average of the GUS activities) ([1]; 50 [i M] OOHL, reporter pMON53031, pMON53030 60 µg, 36 hrs): 1595.5 | + inducer (average of the GUS activities) ([1]; 100 [i M] OOHL, reporter pMON53031 (traII box 3X-GUS) 10 µg, pMON53030 60 µg, 36 hrs): 1446.4 | induction of GUS activity by histochemical GUS staining [3]: uniform induced activity | + inducer (average of the GUS activities) ([4]; pMON53035 (lasB box 3X-GUS) + pMON53005 60 µg): 4.9 | + inducer (average of the GUS activities) ([4]; reporter pMON53031, pMON53005 60 µg): 764.1

CCCC(=O)CC(=O)N[C@H]1CCOC1=O [C6, N-(3-oxohexanoyl)-L-homoserine lactone]
Fold induction ([1]; 25 [i M] inducer (OOHL, or C6) vs no inducer, reporter pMON53031, pMON53030 60 µg, 36 hrs, 25 µM): 1.6 fold | + inducer (average of the GUS activities) [1, 8]: 568.5 | activation by the VP16-EsaR construct diminished by addition of the inducer ([4]; reporter esaR box (4X)-GUS pMON53009, dose-dependent, concentration not given, 36 hours): up to 3.3 fold

CCCCCCC(C(C)=O)C(=O)N[C@@H](CCO)C(=O)O (stereo partly drawn) [compound 26, N-(α-Hexyl-b-ketobutanoyl)-(S)-homoserine]
GUS activity, average ('- inducer') [1]: 184.7 | GUS activity, average (with AHL or analog at the stated concentration) [1]: 387.6 | GUS activity, average (+ inducer) ([1]; 12.5 µM of the AHL or analog): 1812.5 | GUS activity, average [1]: 1515.3 | GUS activity, average (+ inducer) ([1]; 75 µM of the AHL or analog): 2879.9 | fold +/- [1, 5]: 4.7 fold | fold +/- [1, 6]: 1.9 fold | fold +/- [1, 7]: 1.2 fold

CCCCCC(=O)C(C)C(=O)N[C@@H](CCO)C(=O)O (stereo partly drawn) [compound 7, N-(α-Methyl-b-ketooctanoyl)-(S)-homoserine]
GUS activity, average ('- inducer') [1]: 180.2 | GUS activity, average (with AHL or analog at the stated concentration) [1]: 1071.5 | GUS activity, average (+ inducer) ([1]; 12.5 µM of the AHL or analog): 2746.0 | GUS activity, average [1]: 2486.3 | GUS activity, average (+ inducer) ([1]; 75 µM of the AHL or analog): 3209.7 | fold +/- [1, 5]: 2.6 fold | fold +/- [1, 6]: 1.3 fold | fold +/- [1, 7]: 1.8 fold

CCCCCC(=O)C(CC)C(=O)N[C@@H](CCO)C(=O)O (stereo partly drawn) [compound 19, N-(α-Ethyl-b-ketooctanoyl)-(S)-homoserine]
GUS activity, average ('- inducer') [1]: 469.6 | GUS activity, average (with AHL or analog at the stated concentration) [1]: 2239.4 | GUS activity, average (+ inducer) ([1]; 12.5 µM of the AHL or analog): 5377.3 | GUS activity, average [1]: 6732.3 | GUS activity, average (+ inducer) ([1]; 78 µM as printed): 7569.1 | fold +/- [1, 5]: 2.4 fold | fold +/- ([1]; ratio of GUS activity at 78 µM to that at 25 µM): 1.1 fold | fold +/- [1, 7]: 2.8 fold

CCCCCC(=O)C(C)(C)C(=O)N[C@@H](CCO)C(=O)O [compound 16, N-(α,α-Dimethyl-b-ketooctanoyl)-(S)-homoserine]
GUS activity, average ('- inducer') [1]: 111.8 | GUS activity, average (with AHL or analog at the stated concentration) [1]: 229.7 | GUS activity, average (+ inducer) ([1]; 12.5 µM of the AHL or analog): 509.8 | GUS activity, average [1]: 1426.6 | GUS activity, average (+ inducer) ([1]; 75 µM of the AHL or analog): 4719.8 | fold +/- [1, 5]: 2.2 fold | fold +/- [1, 6]: 3.3 fold | fold +/- [1, 7]: 2.8 fold
